The values that follow are results of earlier work, collected in patent US10828278B2, “Tesofensine and beta blocker combination formulations” (SANIONA A/S, priority 2015, dated 2020).

Molecules are shown by their SMILES.

For data set [1] the following is noted: for half-life: in vivo.
For data set [2] the following is noted: long-term treatment, corrected for placebo and diet effects, obese patients.
The conditions of data set [3]: in vivo.

`COc1ccccc1OCCNCC(O)COc1cccc2[nH]c3ccccc3c12` (racemic) [carvedilol, (±)-[3-(9H-carbazol-4-yloxy)-2-hydroxypropyl][2-(2-methoxyphenoxy)ethyl]amine]: the half-life (usually the time needed for the level to fall by half in the phase considered) in data set [1] is 7 to 10 h.
In the case of `CCOC[C@@H]1[C@@H](c2ccc(Cl)c(Cl)c2)C[C@@H]2CC[C@H]1N2C` [Tesofensine, (1R,2R,3S,5S)-3-(3,4-dichlorophenyl)-2-(ethoxymethyl)-8-methyl-8-azabicyclo[3.2.1]octane], in data set [1] (serum), the serum half-life entry is “nine”. For the same molecule, in data set [2], the weight loss entry is on record as “about 10%”. Besides, in data set [3], the sagittal diameter entry was “significantly decreases” and the waist circumference result is reported as “significantly decreases”.
As to `COCCc1ccc(OCC(O)CNC(C)C)cc1` (stereo not drawn) [metoprolol, 1-(Isopropylamino)-3-[4-(2-methoxyethyl)-phenoxy]-propan-2-ol], the half-life in data set [1] was 3 to 4 h.
